Measured values taken from patent US20060210659A1, “Anti-obesity agent” (priority 2005, published 2006).

Assay: Lipid-absorption suppressive activity: plasma triglyceride after oral salad oil tolerance
Format: in vivo, male ddy line mice
Protocol: (§1) Orbital blood collection from male ddy line mice of six weeks old (six animals per group) was carried out, and then 10 mL/kg of water or 0.1 g/kg of aqueous actein solution was orally administrated to each of them. After 30 minutes, 10 mL/kg of salad oil was orally administrated, orbital blood collection was performed after 180 minutes again, and blood plasma was separated to measure the triglyceride level.
as §1, with “0.2 g/kg or 1.0” for “0.1”, “aqueous” for “aqueous actein”, “solution of Black cohosh extract (Example 1)” for “solution”, “administrated.” for “administrated to each of them.”

## CC(=O)O[C@@H]1C[C@@]23C[C@@]24CC[C@H](O[C@@H]2OC[C@@H](O)[C@H](O)[C@H]2O)C(C)(C)[C@@H]4CC[C@H]3[C@]2(C)C[C@@H]3O[C@]4(C[C@@H](C)[C@@H]3[C@@]12C)O[C@H](O)[C@@]1(C)O[C@@H]41 [actein]
0.1 g/kg actein oral group, baseline blood collected before dosing, mean ± SD, six animals
  Triglyceride level in blood plasma, before salad oil administration: 110.4 ± 22.2 mg/dL
0.1 g/kg actein oral, 30 min before 10 mL/kg salad oil, 180 min after oil, mean ± SD
  Triglyceride level in blood plasma, after 180 minutes: 248.6 ± 27.8 mg/dL
0.1 g/kg actein oral, vs water group
  Triglyceride level in blood plasma after 180 minutes of salad oil tolerance (in words): significantly suppressed
